For assay [1], the system named is MET1 cells. As to the kind of experiment: Intracellular ROS production in MET1 cells (DHE fluorescence). The class given is cell-based, human. The conditions noted are these: 5 µM. As to the method:
MET1 cells were seeded at a density of 20,000 cells/cm² in 24-well plates. After 24 h, cells were treated with MB and AO diluted in culture medium at low concentrations (1.25 µM, 2.5 µM and 5 µM). The medium culture was replaced by the prepared samples. Plates were incubated for 24 h; then, cells were washed with medium, and DMEM without phenol red was added. The plates were submitted to 2.5 J/cm² irradiation under red light at 640 nm for MB and 457 nm blue light for AO. Dihydroethidium (DHE) was used to evaluate ROS production. For this assay, the medium was removed after irradiation, and 20 µM of DHE diluted in medium was added. The plate was incubated for 20 min, washed with medium and incubated 20 min with Hoechst 33342 (5 µg/mL), which was used to stain the cells’ nuclei. After removing the excess dye, culture medium was added, and the cells were immediately observed using a Nikon Ti-S epifluorescence microscope. Cells were examined using a 40 × objective in random areas of 4 different wells under the same treatment condition. Images were analyzed using ImageJ software, and the intensity was measured according to integrated density values of red fluorescence.

The test system of assay [2] is WM983b cells. Briefly: Cytotoxicity (resazurin cell viability) in WM983b cells. The class given is cell-based, human. The conditions noted are these: for IC50: Homo sapiens, 1.25-320 µM. From the text:
(§1) The MET1 SCC cell line (human squamous cell carcinoma) was obtained from Ximbio (London, UK), HaCaT (immortalized human keratinocytes cell line) was obtained from Addexbio (San Diego, CA, USA) and WM983b (human metastatic melanoma cell line) was obtained from Rockland (Pottstown, PA, USA). Cells were maintained in Dulbecco’s Modified Eagle Medium (DMEM) supplemented with 10% (v/v) fetal bovine serum (FBS) for MET1 and HaCaT and 5% (v/v) for WM983b cells, and Pen–Strep (penicillin 100 U/mL and streptomycin 100 µg/mL). Cells were cultivated in an incubator (Sanyo MCO-19AIC-UV) at 37 °C in a 5% CO2 humidified atmosphere.
(§2) First, 96-well plates were seeded with HaCaT and MET1 cells at a density of 20,000 cells/cm² and incubated for 24 h. After that period, the culture medium was replaced by culture medium containing different compounds: MB, AO, GV, QT, CUR, EGCG, PHE, NEO and BIPY. The compounds were diluted in culture medium using a range of concentrations of each compound from 1.25 µM to 320 µM (in quadruplicate). The medium was aspirated from the 96-well plate and replaced by the samples diluted in medium. Cells cultured with complete medium and cells cultured with medium supplemented with 0.2% (v/v) or 10% (v/v) of DMSO were used as negative (NC), solvent (SC) and positive controls (PC), respectively. The plates were incubated for 24 and 48 h, followed by evaluation of cell viability using a colorimetric assay. Cells containing samples were washed with PBS supplemented with calcium and magnesium; then, resazurin solution diluted in DMEM at 0.02 mg/mL was added. The medium containing resazurin was also dispensed in wells without cells, which were used as references. After 3 h of incubation, the absorbance was measured in a microplate reader (ELX800UV, Biotek Instruments) at wavelengths of 570 nm and 600 nm. The corrected absorbance was proportional to cell viability. Propagation of uncertainties was used to calculate the combined standard uncertainty. For the cytotoxicity study using WM983b cells, plates were seeded at a density of 40,000 cells/cm², and cells were treated only with MB and AO.
A general note: Alamar Blue is a resazurin reagent that responds to reducing activity.

The test system of assay [3] is MET1 cells. Briefly: Cytotoxicity (resazurin cell viability) in MET1 cells. The format is cell-based, human. The conditions noted are these: Homo sapiens, MET-1, MET1 cells, 1.25-320 µM.
From the text: as §1, §2

The subject of a further assay is HaCaT cells. As to the kind of experiment: Cytotoxicity (resazurin cell viability) in HaCaT cells. The class given is cell-based, human. The conditions noted are these: Homo sapiens, HaCaT cells, 1.25-320 µM.
From the text: as §1, §2

The subject of assay [4] is WM983b cells. As to the kind of experiment: Phototoxicity assay in WM983b cells (irradiation 2.5 J/cm², resazurin). The conditions noted are these: Homo sapiens, light or radiation study, treated 24 h. The format is cell-based.
From the text: as §1
For the phototoxicity studies, 96-well plates were seeded with MET1 cells at a density of 20,000 cells/cm², incubated overnight and treated for 24 h with MB, AO, GV, QT, CUR, EGCG, PHE, NEO and BIPY diluted in culture medium in a concentration range of 1.25 µM to 40 µM (in sextuplicate). […] Cells cultured with complete medium and cells cultured with medium supplemented with 0.2% (v/v) or 10% (v/v) of DMSO were used as negative (NC), solvent (SC) and positive control (PC), respectively. The plates were incubated for 24 h, followed by washing with PBS supplemented with calcium and magnesium. Afterwards, complete culture medium without phenol red was added, and the plates were irradiated from above and submitted to a dose of 2.5 J/cm² of irradiation emitted by different wavelength light sources coupled with a homemade irradiation system created in our laboratory. These light sources consisted of an equivalent 26 cm UV tubular lamp (254 nm) (Phillips TUV PLS 9W/2PHg) and a tricolor LED lamp (Led Grow Light Bulb E26/E27) with intensity peaks at 457 nm (blue light), 583 nm (yellow light) and 640 nm (red light) provided by 18, 18 and 28 LEDs, respectively, with dimensions of 3 × 3 mm^2. The irradiance values of light at 254, 457, 583 and 640 nm wavelengths were of 16.7, 55, 45 and 25 W/m^2, respectively. This experiment was performed in an incubator that was able to keep plates in a dark environment; therefore, the dark control plates were protected from any light source, as well as the others, with the exception of the irradiation that each one was submitted to. Plates were incubated for another 24 h, and finally, the resazurin assay was performed as previously described in Section 3.3. For the phototoxicity study using WM983b cells, plates were prepared at a cell density of 40,000 cells/cm², and cells were treated with MB and AO only.

Like-named read-outs stand apart in the source and are kept apart here.

For the molecule `CN(C)c1ccc2cc3ccc(N(C)C)cc3nc2c1` [Acridine orange, acridine orange], the “increase in fluorescence (DHE, integrated density) vs irradiated control” value in the assay on MET1 cells [1] (457 nm irradiation 2.5 J/cm², vs irradiated control 0 µM) is listed as “about 2.6 fold”. Moreover, the “increase in fluorescence intensity (DHE, integrated density) vs non-irradiated control” value in the assay on MET1 cells [1] (non-irradiated, vs non-irradiated control 0 µM) is reported as “about 1.8 fold”. Further, the “concentration above which the relative cell population falls below 70%” value with WM983b cells [2] (24 or 48 h) is reported as over 20 µM. Besides, the IC50 in the assay with WM983b cells [2] (24 h exposure, read-out: IC50 WM983b cells 24 h) was determined as 25.2 µM; in the assay with WM983b cells [2] (48 h exposure, read-out: IC50 WM983b cells 48 h), 6.6 µM; in the assay on MET1 cells [3] (24 h exposure, read-out: IC50 MET1 Cells 24 h), 15.1 µM; with MET1 cells [3] (48 h exposure, read-out: IC50 MET1 Cells 48 h) it was 10.3 µM; with HaCaT cells (24 h exposure, read-out: IC50 HaCaT Cells 24 h) it was 10.5 µM; with HaCaT cells (48 h exposure, read-out: IC50 HaCaT Cells 48 h) it was 6.5 µM. The IC50 came out at 1.1 µM with WM983b cells [4] (457 nm light, 2.5 J/cm², read-out: IC50 irradiated samples (457 nm)) and 17.5 µM in the assay with WM983b cells [4] (without irradiation, read-out: IC50 non-irradiated samples).

A word on the IC50: it is the concentration at which inhibition is half-maximal.

These data come from paper PMC10054552, “Phototoxic Potential of Different DNA Intercalators for Skin Cancer Therapy: In Vitro Screening” (International Journal of Molecular Sciences, 2023).
